Results: ChEMBL document CHEMBL2069189, “Discovery of checkpoint kinase inhibitor (S)-5-(3-fluorophenyl)-N-(piperidin-3-yl)-3-ureidothiophene-2-carboxamide (AZD7762) by structure-based design and optimization of thiophenecarboxamide ureas” (J Med Chem, 2012)

Tests used:
[1] = biological target: T1, Serine/threonine-protein kinase Chk1 (Homo sapiens, UniProt O14757); experiment: Inhibition of human recombinant CHK1 expressed in insect cells using biotinylaminohexanoyl-KKVSRSGLYRSPMPENLNRPR as substrate after 2 hrs by scintillation proximity assay
T1 sequence (O14757 whole entry): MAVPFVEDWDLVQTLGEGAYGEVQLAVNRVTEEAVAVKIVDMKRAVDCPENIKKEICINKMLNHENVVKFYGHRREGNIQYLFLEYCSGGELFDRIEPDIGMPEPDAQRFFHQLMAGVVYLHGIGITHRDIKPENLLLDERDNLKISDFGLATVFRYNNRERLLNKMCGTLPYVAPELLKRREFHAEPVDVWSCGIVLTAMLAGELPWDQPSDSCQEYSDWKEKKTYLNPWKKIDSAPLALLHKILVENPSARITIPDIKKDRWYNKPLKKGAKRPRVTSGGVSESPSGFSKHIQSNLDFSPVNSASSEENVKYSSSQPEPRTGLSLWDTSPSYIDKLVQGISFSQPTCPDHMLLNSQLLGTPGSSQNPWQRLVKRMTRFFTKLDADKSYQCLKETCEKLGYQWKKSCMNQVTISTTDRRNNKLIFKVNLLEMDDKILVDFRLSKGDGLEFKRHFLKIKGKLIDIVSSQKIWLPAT

[2] = Half life in nude mouse; type: ADME, organism-based; conditions: in vivo
[3] = Clearance in nude mouse; type: ADME, organism-based; conditions: in vivo
[4] = AUC in nude mouse; type: ADME, organism-based; design: concentration or dose not given beside the values; conditions: plasma
[5] = Volume of distribution at steady state in nude mouse; type: ADME, organism-based; conditions: in vivo, read-out: Vdss
[6] = Fraction unbound in human plasma; type: ADME, cell-free
[7] = Clearance in rat; type: ADME, organism-based; conditions: in vivo
[8] = Clearance in dog; type: ADME, organism-based, Canis lupus familiaris; conditions: in vivo
[9] = Half life in rat; type: ADME, organism-based; conditions: in vivo
CYP450 = CYP450 (Homo sapiens, UniProt P04798+P05177+P05181+P08684+P10632+P10635+P11509+P11712+P13584+P20813+P20815+P20853+P24462+P24903+P33260+P33261+P51589+P78329+P98187+Q02928+Q08477+Q16678+Q16696+Q5TCH4+Q6VVX0+Q7Z449+Q8TAV3+Q96SQ9+Q9HB55); experiment: Inhibition of CYP450; type: ADME
[10] = Lipophilicity, log D of the compound; type: physicochemical; conditions: octanol/water
[11] = Half life in dog; type: ADME, organism-based, Canis lupus familiaris; conditions: in vivo
[12] = Thermodynamic solubility of the compound in 0.1 M phosphate buffer at pH 7.4; type: physicochemical; conditions: read-out: Therm_solubility
[13] = biological target: Serine/threonine-protein kinase Chk2 (Homo sapiens, UniProt O96017); experiment: Inhibition of CHK2
Chain of Serine/threonine-protein kinase Chk2 (O96017 whole entry): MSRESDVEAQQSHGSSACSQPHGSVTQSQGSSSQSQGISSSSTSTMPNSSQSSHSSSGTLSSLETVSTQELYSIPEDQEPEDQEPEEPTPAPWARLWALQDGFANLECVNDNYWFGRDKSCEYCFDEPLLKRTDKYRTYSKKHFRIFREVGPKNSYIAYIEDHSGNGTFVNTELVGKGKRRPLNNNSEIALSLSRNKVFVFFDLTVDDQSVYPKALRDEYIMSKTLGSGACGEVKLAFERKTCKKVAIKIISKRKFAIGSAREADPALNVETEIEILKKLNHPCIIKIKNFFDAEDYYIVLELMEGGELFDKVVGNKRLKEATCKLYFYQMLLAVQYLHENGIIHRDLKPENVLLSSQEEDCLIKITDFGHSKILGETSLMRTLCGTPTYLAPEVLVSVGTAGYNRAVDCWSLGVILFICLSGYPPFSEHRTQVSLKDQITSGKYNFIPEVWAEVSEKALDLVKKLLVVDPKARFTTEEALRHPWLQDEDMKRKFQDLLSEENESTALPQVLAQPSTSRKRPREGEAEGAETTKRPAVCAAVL

Structure (SMILES) | IC50 [1] [nM] | half-life [2] [h] | clearance [3] [mL/min/kg] | AUC [4] [µM·h] | Vd [5] [L/kg] | further results
N#Cc1cccc(-c2cc(NC(N)=O)c(C(=O)N[C@H]3CCCNC3)s2)c1 | 7 | – | – | – | – | –
Cl.NC(=O)Nc1sc(-c2cccc(F)c2F)cc1C(=O)N[C@H]1CCCNC1 | 11 | 1.2 | 71 | 1.7 | 4.5 | –
NC(=O)Nc1sc(-c2ccc(Cl)c(Cl)c2)cc1C(=O)N[C@H]1CCCNC1 | 30 | – | – | – | – | –
Cl.NC(=O)Nc1cc(-c2ccc(F)cc2)sc1C(=O)N[C@H]1CCCNC1 | 6 | 1.2 | 86 | 1.46 | 8.5 | –
N#Cc1cccc(-c2cc(C(=O)N[C@H]3CCCNC3)c(NC(N)=O)s2)c1 | 9 | – | – | – | – | –
NC(=O)Nc1cc(-c2cccc(Cl)c2)sc1C(=O)N[C@H]1CCCNC1 | 8 | – | – | – | – | –
NC(=O)Nc1cc(-c2cc(F)cc(F)c2)sc1C(=O)N[C@H]1CCCNC1 | 10 | – | – | – | – | –
Cl.NC(=O)Nc1sc(-c2ccc(F)cc2)cc1C(=O)N[C@H]1CCCNC1 | – | 1.2 | 81 | 1.5 | 6.1 | –
Cl.NC(=O)Nc1cc(-c2cccc(F)c2F)sc1C(=O)N[C@H]1CCCNC1 | 20 | 1.4 | 85 | 1.4 | 7.7 | –
NC(=O)Nc1sc(-c2ccc(F)cc2F)cc1C(=O)N[C@H]1CCCNC1 | 13 | – | – | – | – | –
Cl.NC(=O)Nc1sc(-c2cccc(F)c2)cc1C(=O)N[C@H]1CCCNC1 | – | 1 | 33 | 3.8 | 2.8 | –
NC(=O)Nc1sc(-c2ccccc2)cc1C(=O)N[C@H]1CCCNC1 | – | – | – | – | – | fraction unbound [6]: 0.077
NC(=O)Nc1cc(-c2ccc(Cl)c(Cl)c2)sc1C(=O)N[C@H]1CCCNC1 | 40 | – | – | – | – | –
N#Cc1ccc(-c2cc(NC(N)=O)c(C(=O)N[C@H]3CCCNC3)s2)cc1 | 6 | – | – | – | – | –
NC(=O)Nc1sc(-c2cc(F)cc(F)c2)cc1C(=O)N[C@H]1CCCNC1 | 12 | – | – | – | – | –
NC(=O)Nc1cc(-c2cccc(F)c2)sc1C(=O)N[C@H]1CCCNC1 [AZD-7762] | – | 1.1 | 50 | 2.5 | 3.9 | clearance [7]: 12.8 mL/min/kg; clearance [8]: 35.7 mL/min/kg; fraction unbound [6]: 0.26; half-life [9]: 5.2 h; IC50 (CYP450): > 10000 nM; logD [10]: 1.2; half-life [11]: 1.5 h; solubility thermodynamic [12]: > 1000 µM; IC50 [13]: < 10 nM
NC(=O)Nc1cc(-c2ccccc2F)sc1C(=O)N[C@H]1CCCNC1 | 20 | – | – | – | – | –
NC(=O)Nc1cc(-c2ccc(F)cc2F)sc1C(=O)N[C@H]1CCCNC1 | 30 | – | – | – | – | –
NC(=O)Nc1cc(-c2ccccc2)sc1C(=O)N[C@H]1CCCNC1 | 10 | – | – | – | – | fraction unbound [6]: 0.32; logD [10]: 1.04
